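Method: 48-hour compound exposure of cells in 96-well plates, five concentrations, linear interpolation of endpoints. The concentration for 50% growth inhibition is given as GI50.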 The source made the active and inactive calls. Rule as the data show it: active = GI50 up to about 1.1 µM and inactive = higher.
Key:
Assay in all cases: DTP human tumour cell line panel, 48 h
[1] = tested on: HCT-15
[2] = tested on: Hs-578T
[3] = tested on: EKVX
[4] = tested on: MDA-N
[5] = tested on: SK-MEL-2
[6] = tested on: HT-29
[7] = tested on: OVCAR-5
[8] = tested on: RPMI-8226
[9] = tested on: HOP-62
[10] = tested on: NCI-H522
[11] = tested on: MDA-MB-435
[12] = tested on: CAKI-1
[13] = tested on: NCI-H460
[14] = tested on: PC-3
[15] = tested on: SF-268
[16] = tested on: SF-295
[17] = tested on: SK-MEL-5
[18] = tested on: TK-10

**Q.** `CCOP(=O)(OCC)/C(=C\n1ccc(=O)[nH]c1=S)C(=O)OC` was tested. Which GI50 [1] did it give?
**A.** > 100 µM

**Q.** What about the GI50 [2] of the same molecule?
**A.** 66.2 µM (inactive)

**Q.** What about the GI50 [3] of the same molecule?
**A.** > 100 µM (inactive)

**Q.** What about the GI50 [4] of the same molecule?
**A.** > 100 µM (inactive)

**Q.** What about the GI50 [5] of the same molecule?
**A.** > 100 µM (inactive)

**Q.** What about the GI50 [6] of the same molecule?
**A.** > 100 µM (inactive)

**Q.** What about the GI50 [7] of the same molecule?
**A.** > 100 µM (inactive)

**Q.** And the GI50 [8]?
**A.** > 100 µM (inactive)

**Q.** What about the GI50 [9] of the same molecule?
**A.** > 100 µM (inactive)

**Q.** What about the GI50 [10] of the same molecule?
**A.** > 100 µM (inactive)

**Q.** What about the GI50 [11] of the same molecule?
**A.** > 100 µM (inactive)

**Q.** And the GI50 [12]?
**A.** > 100 µM (inactive)

**Q.** And the GI50 [13]?
**A.** > 100 µM (inactive)

**Q.** What about the GI50 [14] of the same molecule?
**A.** > 100 µM (inactive)

**Q.** And the GI50 [15]?
**A.** > 100 µM (inactive)

**Q.** What about the GI50 [16] of the same molecule?
**A.** > 100 µM (inactive)

**Q.** What about the GI50 [17] of the same molecule?
**A.** > 100 µM (inactive)

**Q.** With `O=C(/C=C(\Nc1ccccc1O)c1ccccc1)C(=O)NC12CC3CC(CC(C3)C1)C2` as the molecule, how does the GI50 [1] read?
**A.** > 10 µM

**Q.** And the GI50 [2]?
**A.** > 10 µM (inactive)

**Q.** What about the GI50 [18] of the same molecule?
**A.** > 10 µM (inactive)

**Q.** And the GI50 [3]?
**A.** > 10 µM (inactive)

**Q.** And the GI50 [4]?
**A.** > 10 µM (inactive)

**Q.** And the GI50 [5]?
**A.** > 10 µM (inactive)

**Q.** What about the GI50 [6] of the same molecule?
**A.** 2.41 µM (inactive)

**Q.** What about the GI50 [7] of the same molecule?
**A.** 8.45 µM (inactive)

**Q.** And the GI50 [8]?
**A.** 4.99 µM (inactive)

**Q.** And the GI50 [9]?
**A.** > 10 µM (inactive)

**Q.** What about the GI50 [10] of the same molecule?
**A.** > 10 µM (inactive)

**Q.** What about the GI50 [11] of the same molecule?
**A.** > 10 µM (inactive)

**Q.** What about the GI50 [12] of the same molecule?
**A.** > 10 µM (inactive)

**Q.** What about the GI50 [13] of the same molecule?
**A.** > 10 µM (inactive)

**Q.** And the GI50 [14]?
**A.** 5.65 µM (inactive)

**Q.** And the GI50 [15]?
**A.** > 10 µM (inactive)

**Q.** What about the GI50 [16] of the same molecule?
**A.** > 10 µM (inactive)

**Q.** What about the GI50 [17] of the same molecule?
**A.** 7.03 µM (inactive)

**Q.** For `OCC(O)C(O)C(C=NNc1ncnc2ccc(Br)cc12)=NNc1ncnc2ccc(Br)cc12` (configuration not stated), which GI50 [2] is on record?
**A.** 9.62 µM (inactive)

**Q.** What about the GI50 [18] of the same molecule?
**A.** 8.45 µM (inactive)

**Q.** And the GI50 [3]?
**A.** 0.406 µM (active)

**Q.** And the GI50 [4]?
**A.** 3.63 µM (inactive)

**Q.** What about the GI50 [5] of the same molecule?
**A.** 2.3 µM (inactive)

**Q.** What about the GI50 [6] of the same molecule?
**A.** 0.556 µM (active)

**Q.** And the GI50 [7]?
**A.** 3.58 µM (inactive)

**Q.** What about the GI50 [8] of the same molecule?
**A.** 1.19 µM (inactive)

**Q.** And the GI50 [9]?
**A.** 2.64 µM (inactive)

**Q.** What about the GI50 [10] of the same molecule?
**A.** 0.383 µM (active)

**Q.** And the GI50 [11]?
**A.** 3.38 µM (inactive)

**Q.** What about the GI50 [12] of the same molecule?
**A.** 0.83 µM (active)

**Q.** What about the GI50 [14] of the same molecule?
**A.** 4.35 µM (inactive)

**Q.** And the GI50 [15]?
**A.** 1.29 µM (inactive)

**Q.** And the GI50 [16]?
**A.** 3.25 µM (inactive)

**Q.** And the GI50 [17]?
**A.** 0.968 µM (active)

**Q.** `CCOC(=O)/C(Br)=C1/OC(=O)c2ccccc2-c2ccccc21.CCOC(=O)/C(Br)=C1\OC(=O)c2ccccc2-c2ccccc21` was tested. Which GI50 [1] did it give?
**A.** 19.6 µM

**Q.** And the GI50 [18]?
**A.** 21.6 µM (inactive)

**Q.** And the GI50 [3]?
**A.** 31.7 µM (inactive)

**Q.** What about the GI50 [5] of the same molecule?
**A.** 18.5 µM (inactive)

**Q.** And the GI50 [6]?
**A.** 11.3 µM (inactive)

**Q.** And the GI50 [7]?
**A.** 20 µM (inactive)

**Q.** What about the GI50 [8] of the same molecule?
**A.** 8.97 µM (inactive)

**Q.** What about the GI50 [9] of the same molecule?
**A.** 18.5 µM (inactive)

**Q.** And the GI50 [10]?
**A.** 15.8 µM (inactive)

**Q.** And the GI50 [12]?
**A.** 16.4 µM (inactive)

**Q.** And the GI50 [15]?
**A.** 30.7 µM (inactive)

**Q.** And the GI50 [16]?
**A.** 21.9 µM (inactive)

**Q.** And the GI50 [17]?
**A.** 17.5 µM (inactive)

**Q.** For `O=C(Nc1cccc([N+](=O)[O-])c1)c1nnn(-c2cccc([N+](=O)[O-])c2)c1O`, which GI50 [2] is on record?
**A.** > 100 µM (inactive)

**Q.** And the GI50 [3]?
**A.** > 100 µM (inactive)

**Q.** And the GI50 [4]?
**A.** > 100 µM (inactive)

**Q.** What about the GI50 [5] of the same molecule?
**A.** > 100 µM (inactive)

**Q.** And the GI50 [6]?
**A.** > 100 µM (inactive)

**Q.** What about the GI50 [7] of the same molecule?
**A.** > 100 µM (inactive)

**Q.** And the GI50 [8]?
**A.** > 100 µM (inactive)

**Q.** What about the GI50 [9] of the same molecule?
**A.** > 100 µM (inactive)

**Q.** And the GI50 [10]?
**A.** > 100 µM (inactive)

**Q.** What about the GI50 [11] of the same molecule?
**A.** > 100 µM (inactive)

**Q.** And the GI50 [12]?
**A.** > 100 µM (inactive)

**Q.** What about the GI50 [14] of the same molecule?
**A.** > 100 µM (inactive)

**Q.** What about the GI50 [15] of the same molecule?
**A.** > 100 µM (inactive)

**Q.** What about the GI50 [16] of the same molecule?
**A.** > 100 µM (inactive)

**Q.** And the GI50 [17]?
**A.** > 100 µM (inactive)

**Q.** With `CC(=O)Oc1cc(OC(C)=O)c2c(C)cc(=O)oc2c1` as the molecule, how does the GI50 [1] read?
**A.** > 100 µM

**Q.** What about the GI50 [2] of the same molecule?
**A.** > 100 µM (inactive)

**Q.** What about the GI50 [18] of the same molecule?
**A.** 97.7 µM (inactive)

**Q.** What about the GI50 [3] of the same molecule?
**A.** > 100 µM (inactive)

**Q.** And the GI50 [4]?
**A.** > 100 µM (inactive)

**Q.** What about the GI50 [5] of the same molecule?
**A.** > 100 µM (inactive)

**Q.** What about the GI50 [6] of the same molecule?
**A.** > 100 µM (inactive)

**Q.** What about the GI50 [7] of the same molecule?
**A.** > 100 µM (inactive)

**Q.** What about the GI50 [8] of the same molecule?
**A.** > 100 µM (inactive)

**Q.** And the GI50 [9]?
**A.** > 100 µM (inactive)

**Q.** What about the GI50 [11] of the same molecule?
**A.** > 100 µM (inactive)

**Q.** And the GI50 [14]?
**A.** > 100 µM (inactive)

**Q.** What about the GI50 [15] of the same molecule?
**A.** > 100 µM (inactive)

**Q.** And the GI50 [16]?
**A.** > 100 µM (inactive)

**Q.** And the GI50 [17]?
**A.** > 100 µM (inactive)

**Q.** Which results are given for `O=[N+]([O-])c1ccc(C2CC(c3ccc(NCc4nc5ccccc5[nH]4)cc3)=NO2)cc1` (configuration not stated)?
**A.** GI50 [1]: 30.7 µM; GI50 [18]: 89.3 µM (inactive); GI50 [5]: > 100 µM (inactive); GI50 [6]: 38.5 µM (inactive); GI50 [7]: > 100 µM (inactive); GI50 [8]: 18.5 µM (inactive); GI50 [9]: > 100 µM (inactive); GI50 [10]: 27.9 µM (inactive); GI50 [12]: > 100 µM (inactive); GI50 [13]: 15.6 µM (inactive); GI50 [15]: > 100 µM (inactive); GI50 [16]: 21.8 µM (inactive); GI50 [17]: 9.04 µM (inactive)
